Measured values reported in patent US11802120B2, “Fused cyclic urea derivatives as CRHR2 antagonist” (RaQualia Pharma Inc., priority 2018, dated 2023).

The compounds below were run against T1, human CRHR2-alpha (Homo sapiens, UniProt Q13324) (assay: cAMP functional assay for human CRHR2 (LANCE Ultra cAMP, TR-FRET)). Details: CHO-K1 cells expressing human CRHR2-alpha, agonist human urocortin2 at EC80, cAMP; read-out: IC50 against CRHR2.
T1 sequence (Q13324 1-411): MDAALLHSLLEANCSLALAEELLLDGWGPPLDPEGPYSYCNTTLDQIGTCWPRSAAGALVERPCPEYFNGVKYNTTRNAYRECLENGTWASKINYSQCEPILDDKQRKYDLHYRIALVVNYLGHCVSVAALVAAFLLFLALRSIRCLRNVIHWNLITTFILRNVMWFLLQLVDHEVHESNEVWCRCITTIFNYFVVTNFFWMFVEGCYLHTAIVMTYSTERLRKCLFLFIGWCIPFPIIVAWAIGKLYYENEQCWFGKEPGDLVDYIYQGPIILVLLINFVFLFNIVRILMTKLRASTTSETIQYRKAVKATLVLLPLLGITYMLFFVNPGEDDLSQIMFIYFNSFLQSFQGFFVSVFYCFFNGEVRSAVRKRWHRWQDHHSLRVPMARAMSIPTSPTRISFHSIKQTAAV
Assay type: cell-based
Outline: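 CHO-K1 cells stably expressing each receptor, serum-starved and cryopreserved, were preincubated with compound 30 min at 25° C in HBSS buffer with 0.5 mM IBMX, pH 7.4, then stimulated 30 min with EC80 agonist (urocortin2 for CRHR2, CRF for CRHR1). cAMP read by TR-FRET; IC50 from percent-inhibition curves.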

Compound | IC50
Cc1ncc(Cl)cc1C(=O)N[C@H]1CC[C@H](Cn2c(=O)n(-c3cccc(-c4ccn(C)n4)c3)c3ccccc32)CC1 [Example 651, 5-chloro-2-methyl-N-((1r,4r)-4-((3-(3-(1-methyl-1H-pyrazol-3-yl)phenyl)-2-oxo-2,3-dihydro-1H-benzo [d]imidazol-1-yl)methyl)cyclohexyl)nicotinamide] | < 300 nM
COCCOc1ccc(-n2c(=O)n(C[C@H]3CC[C@H](NC(=O)c4cc(Cl)cnc4C(F)(F)F)CC3)c3ccccc32)cn1 [Example 416, 5-chloro-N-((1r,4r)-4-((3-(6-(2-methoxyethoxy)pyridin-3-yl)-2-oxo-2,3-dihydro-1H-benzo [d]imidazol-1-yl)methyl)cyclo-hexyl)-2-(trifluoromethyl) nicotinamide] | < 300 nM
CNC(=O)c1ccc(-n2c(=O)n(C[C@H]3CC[C@H](NC(=O)c4cc(Cl)cnc4C)CC3)c3cc(F)ccc32)cn1 [Example 226, 5-(3-(((1r,4r)-4-(5-chloro-2-methylnicotinamido)cyclo-hexyl)methyl)-5-fluoro-2-oxo-2,3-dihydro-1H-benzo[d]imidazol-1-yl)-N-methylpicolinamide] | < 300 nM
CNC(=O)c1ccc(-n2c(=O)n(C[C@H]3CC[C@H](NC(=O)c4cc(Cl)cnc4C)CC3)c3ccc(OC)cc32)cn1 [Example 258, 5-(3-(((1r,4r)-4-(5-chloro-2-methylnicotinamido)cyclo-hexyl)methyl)-6-methoxy-2-oxo-2,3-dihydro-1H-benzo [d]imidazol-1-yl)-N-methylpicolinamide] | < 300 nM
COc1ccc(Cn2c(=O)n(C[C@H]3CC[C@H](NC(=O)c4cc(Cl)cnc4C)CC3)c3cccnc32)c(OC)c1 [Example 251, 5-chloro-N-((1r,4r)-4-((3-(2,4-dimethoxybenzyl)-2-oxo-2,3-dihydro-1H-imidazo[4,5-b]pyridin-1-yl)methyl)cyclo-hexyl)-2-methylnicotinamide] | < 300 nM
CCn1c(=O)oc2cc(-n3c(=O)n(C[C@H]4CC[C@H](NC(=O)c5cc(Cl)cnc5C)CC4)c4ccccc43)cnc21 [Example 277, 5-chloro-N-((1r,4r)-4-((3-(3-ethyl-2-oxo-2,3-dihydro-oxazolo[4,5-b]pyridin-6-yl)-2-oxo-2,3-dihydro-1H-benzo [d]imidazol-1-yl)methyl)cyclohexyl)-2-methylnico-tinamide] | < 300 nM
Cc1ncc(Cl)cc1C(=O)N[C@H]1CC[C@H](Cn2c(=O)n(-c3cccc4cccnc34)c3ccccc32)CC1 [Example 337, 5-chloro-2-methyl-N-((1r,4r)-4-((2-oxo-3-(quinolin-8-yl)-2,3-dihydro-1H-benzo[d]imidazol-1-yl)methyl)cyclo-hexyl)nicotinamide] | < 300 nM
Cn1cc2c(-n3c(=O)n(C[C@H]4CC[C@H](NC(=O)c5cc(Cl)cnc5C(F)F)CC4)c4ccccc43)cccc2n1 [Example 421, 5-chloro-2-(difluoromethyl)-N-((1r,4r)-4-((3-(2-methyl-2H-indazol-4-yl)-2-oxo-2,3-dihydro-1H-benzo[d]imidazol-1-yl)methyl)cyclohexyl)nicotinamide] | < 300 nM
Cc1ccc(-n2c(=O)n(C[C@H]3CC[C@H](NC(=O)c4cc(Cl)cnc4C(F)(F)F)CC3)c3cccc(C)c32)cn1 [Example 302, 5-chloro-N-((1r,4r)-4-((4-methyl-3-(6-methylpyridin-3-yl)-2-oxo-2,3-dihydro-1H-benzo[d]imidazol-1-yl)methyl)cyclohexyl)-2-(trifluoromethyl)nicotinamide] | < 300 nM
Cc1n[nH]c2ccc(-n3c(=O)n(C[C@H]4CC[C@H](NC(=O)c5cc(Cl)cnc5C(F)(F)F)CC4)c4ccccc43)cc12 [Example 260, 5-chloro-N-((1r,4r)-4-((3-(3-methyl-1H-indazol-5-yl)-2-oxo-2,3-dihydro-1H-benzo[d]imidazol-1-yl)methyl)cyclohexyl)-2-(trifluoromethyl)nicotinamide] | < 300 nM
Cc1ccc(-n2c(=O)n(C[C@H]3CC[C@H](NC(=O)c4cc(Cl)cnc4C(F)(F)F)CC3)c3ccccc32)c(C)n1 [Example 315, 5-chloro-N-((1r,4r)-4-((3-(2,6-dimethylpyridin-3-yl)-2-oxo-2,3-dihydro-1H-benzo [d]imidazol-1-yl)methyl)cyclohexyl)-2-(trifluoro-methyl)nicotinamide] | < 300 nM
Cc1ccc(-n2c(=O)n(C[C@H]3CC[C@H](NC(=O)c4cc(Cl)cnc4C)CC3)c3cccc(C)c32)cn1 [Example 57, 5-chloro-2-methyl-N-((1r,4r)-4-((4-rrethyl-3-(6-methylpyridin-3-yl)-2-oxo-2,3-dihydro-1H-benzo[d]imidazol-1-yl)methyl)cyclohexyl)nicotinamide] | < 300 nM
COc1ccc(C#N)c(-n2c(=O)n(C[C@H]3CC[C@H](NC(=O)c4cc(Cl)cnc4C(F)(F)F)CC3)c3ccccc32)c1 [Example 292, 5-chloro-N-((1r,4r)-4-((3-(2-cyano-5-methoxyphenyl)-2-oxo-2,3-dihydro-1H-benzo[d]imidazol-1-yl)methyl)cyclohexyl)-2-(trifluoromethyl)nicotinamide] | < 300 nM
Cc1ncc(Cl)cc1C(=O)N[C@H]1CC[C@H](Cn2c(=O)n(-c3cnc4c(c3)CCN4C)c3ccccc32)CC1 [Example 154, 5-chloro-2-methyl-N-((1r,4r)-4-((3-(1-methyl-2,3-dihydro-1H-pyrrolo[2,3-b]pyridin-5-yl)-2-oxo-2,3-dihydro-1H-benzo[d]imidazol-1-yl)methyl)cyclohexyl)nicotinamide] | < 300 nM
Cc1nc2cc(-n3c(=O)n(C[C@H]4CC[C@H](NC(=O)c5cc(Cl)cnc5C)CC4)c4ccccc43)ccc2s1 [Example 645, 5-chloro-2-methyl-N-((1r,4r)-4-((3-(2-methylbenzo[d]thiazol-5-yl)-2-oxo-2,3-dihydro-1H-benzo[d]imidazol-1-yl)methyl)cyclohexyl) nicotinamide] | < 300 nM
O=C(N[C@H]1CC[C@H](Cn2c(=O)n(-c3ccc4cnccc4c3)c3ccccc32)CC1)c1cc(Cl)cnc1C(F)F [Example 397, 5-chloro-2-(difluoromethyl)-N-((1r,4r)-4-((3-(isoquinolin-6-yl)-2-oxo-2,3-dihydro-1H-benzo[d]imidazol-1-yl)methyl)cyclohexyl)nicotinamide] | < 300 nM
Cc1ccc(-n2c(=O)n(C[C@H]3CC[C@H](NC(=O)c4cc(Cl)cnc4C)CC3)c3ccccc32)c(C#N)c1 [Example 247, 5-chloro-N-((1r,4r)-4-((3-(2-cyano-4-methylphenyl)-2-oxo-2,3-dihydro-1H-benzo[d]imidazol-1-yl)methyl)cyclo-hexyl)-2-methylnicotinamide] | < 300 nM
Cc1ncc(Cl)cc1C(=O)N[C@H]1CC[C@H](Cn2c(=O)n(Cc3ccccc3C#N)c3ccccc32)CC1 [Example 241, 5-chloro-N-((1r,4r)-4-((3-(2-cyanobenzyl)-2-oxo-2,3-dihydro-1H-benzo[d]imidazol-1-yl)methyl)cyclohexyl)-2-methylnicotinamide] | < 300 nM
COc1ccc(Cl)c(-n2c(=O)n(C[C@H]3CC[C@H](NC(=O)c4cc(Cl)cnc4C(F)F)CC3)c3ncccc32)c1 [Example 675, 5-chloro-N-((1r,4r)-4-((1-(2-chloro-5-methoxyphenyl)-2-oxo-1H-imidazo[4,5-b]pyridin-3(2H)-yl)methyl)cyclohexyl)-2-(difluoro-methyl)nicotinamide] | < 300 nM
